We go through 34 compounds from patent US20130317029A1 (PORTOLA PHARMACEUTICALS, INC., priority 2010, published 2013).

pIC50: −log10 of the molar value.

As a reminder, the pIC50 is −log10 of the IC50, conventionally taken in molar units.

The experiment concerns the target T1, full length active recombinant SYK enzyme (Homo sapiens, UniProt P43405).
T1 construct: full length active recombinant SYK enzyme (Millipore, Calif.); purchased Millipore
Briefly: Inhibition of Syk tyrosine phosphorylation activity (LANCE TR-FRET kinase assay). In kind it is biochemical. The essentials: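 Full-length active recombinant SYK (1 nM) phosphorylated biotinylated SYK-specific peptide (550 nM) with 100 μM ATP in 50 mM Tris pH 7.5, 5 mM MgCl2, 1 mM DTT, 3% DMSO, 1 h at room temperature. EDTA quench with Eu-anti-phosphotyrosine and SA-APC, 1 h TR-FRET read; IC50 by non-linear regression.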
(In general: Time-resolved FRET reads energy transfer from a long-lived donor to a nearby acceptor.)
Regarding `CC(C)C[C@@H](Nc1nc(Nc2ccc(OC(F)(F)F)cc2)c(C(N)=O)c(=O)[nH]1)C(N)=O` [Example 91, (R)-2-(1-amino-4-methyl-1-oxopentan-2-ylamino)-4-(4-(trifluoromethoxy)phenylamino)-6-oxo-1,6-dihydropyrimidine-5-carboxamide], the pIC50 is 8.00 to 9.00. Then `CC[C@@H](Nc1nc(Nc2ccc(OCCOC)cc2)c(C(N)=O)c(=O)[nH]1)C(N)=O` [Example 94, (R)-2-(1-amino-1-oxobutan-2-ylamino)-4-(4-(2-methoxyethoxy)phenylamino)-6-oxo-1,6-dihydropyrimidine-5-carboxamide], with 8.00 to 9.00. Take `COc1nc(NC2CCCCC2N)nc(Nc2cc(C)cc(C)c2)c1C(N)=O` (stereo not shown) [Example 65, 2-(2-aminocyclohexylamino)-4-(3,5-dimethylphenylamino)-6-methoxypyrimidine-5-carboxamide]: the negative-log IC50 (pIC50) was 7.00 to 8.00.

In the case of `COCCOc1cccc(Nc2nc(N[C@H](CC(C)C)C(N)=O)[nH]c(=O)c2C(N)=O)c1` [Example 98, (R)-2-(1-amino-4-methyl-1-oxopentan-2-ylamino)-4-(3-(2-methoxyethoxy)phenylamino)-6-oxo-1,6-dihydropyrimidine-5-carboxamide], the negative logarithm of the IC50 (pIC50) is 8.00 to 9.00. Then `CC(C)C[C@@H](Nc1nc(Nc2ccc3cccnc3c2)c(C(N)=O)c(=O)[nH]1)C(N)=O` [Example 107, (R)-2-(1-amino-4-methyl-1-oxopentan-2-ylamino)-6-oxo-4-(quinolin-7-ylamino)-1,6-dihydropyrimidine-5-carboxamide], with 8.00 to 9.00. Then `COc1nc(N[C@@H](C(N)=O)c2ccccc2)nc(Nc2cccc(C)c2)c1C(N)=O` [Example 71, (R)-4-(m-toluidino)-2-(2-amino-2-oxo-1-phenylethylamino)-6-methoxypyrimidine-5-carboxamide], with 6.00 to 7.00; and `COc1cccc(Nc2nc(N[C@H](CC(C)C)C(N)=O)[nH]c(=O)c2C(N)=O)c1` [Example 77, (R)-2-(1-amino-4-methyl-1-oxopentan-2-ylamino)-4-(3-methoxyphenylamino)-6-oxo-1,6-dihydropyrimidine-5-carboxamide], with 8.00 to 9.00; and `CC[C@@H](Nc1nc(Nc2cccc(OC)c2)c(C(N)=O)c(=O)[nH]1)C(N)=O` [Example 39, (R)-2-(1-amino-1-oxobutan-2-ylamino)-4-(3-(methoxy)phenylamino)-6-oxo-1,6-dihydropyrimidine-5-carboxamide], with 8.00 to 9.00. Then `CC(=O)N1CCN(c2ccc(Nc3nc(NC4CCC4)c(C(N)=O)c(=O)[nH]3)cc2)CC1` [Example 47, 2-(4-(4-acetylpiperazin-1-yl)phenylamino)-4-(cyclobutylamino)-6-oxo-1,6-dihydropyrimidine-5-carboxamide], with less than 6.00; and `NC(=O)c1c(Nc2cccc(-c3ncccn3)c2)nc(N[C@@H]2CCCC[C@@H]2N)[nH]c1=O` [Example 38], with 8.00 to 9.00; and `CC[C@@H](Nc1nc(Nc2ccc3c(c2)OCO3)c(C(N)=O)c(=O)[nH]1)C(N)=O` [Example 76, (R)-2-(1-amino-1-oxobutan-2-ylamino)-4-(benzo[d][1,3]dioxol-5-ylamino)-6-oxo-1,6-dihydropyrimidine-5-carboxamide], with 8.00 to 9.00. `COc1nc(N[C@@H](C(N)=O)C(C)C)nc(Nc2cc(C)cc(C)c2)c1C(N)=O` [Example 1, (R)-2-(1-amino-3-methyl-1-oxobutan-2-ylamino)-4-(3,5-dimethylphenylamino)-6-methoxypyrimidine-5-carboxamide]: the pIC50 is 7.00 to 8.00.

Take `NC(=O)c1c(NC2CC2)nc(Nc2ccc(S(N)(=O)=O)cc2)[nH]c1=O` [Example 44, 4-(cyclopropylamino)-6-oxo-2-(4-sulfamoylphenylamino)-1,6-dihydropyrimidine-5-carboxamide]: the pIC50 is less than 6.00. The result for `NC(=O)c1c(Nc2cccc(-n3nccn3)c2)nc(N[C@@H]2CCCNC2)[nH]c1=O` [Example 37] reads greater than 9.00.

As for `COc1nc(NC[C@H](C)N)nc(Nc2cc(C)cc(C)c2)c1C(N)=O` [Example 68, (S)-2-(2-aminopropylamino)-4-(3,5-dimethylphenylamino)-6-methoxypyrimidine-5-carboxamide], the pIC50 is 6.00 to 7.00. Then `CC[C@@H](Nc1nc(Nc2cccc(-n3ccnc3)c2)c(C(N)=O)c(=O)[nH]1)C(N)=O` [Example 119, (R)-2-(1-amino-1-oxobutan-2-ylamino)-4-(3-(1H-imidazol-1-yl)phenylamino)-6-oxo-1,6-dihydropyrimidine-5-carboxamide], with 8.00 to 9.00. `CC[C@@H](Nc1nc(Nc2ccc(OC)cc2)c(C(N)=O)c(=O)[nH]1)C(N)=O` [Example 90, (R)-2-(1-amino-1-oxobutan-2-ylamino)-4-(4-methoxyphenylamino)-6-oxo-1,6-dihydropyrimidine-5-carboxamide]: the negative logarithm of the IC50 (pIC50) was 8.00 to 9.00. Regarding `CC[C@@H](Nc1nc(Nc2ccc(OC(F)(F)F)cc2)c(C(N)=O)c(=O)[nH]1)C(N)=O` [Example 92, (R)-2-(1-amino-1-oxobutan-2-ylamino)-4-(4-(trifluoromethoxy)phenylamino)-6-oxo-1,6-dihydropyrimidine-5-carboxamide], the negative logarithm of the IC50 (pIC50) was 8.00 to 9.00. On to `Cc1cc(C)cc(Nc2nc(N[C@H](C)C(N)=O)[nH]c(=O)c2C(N)=O)c1` [Example 56, (R)-2-(1-amino-1-oxopropan-2-ylamino)-4-(3,5-dimethylphenylamino)-6-oxo-1,6-dihydropyrimidine-5-carboxamide], for which the negative logarithm of the IC50 (pIC50) was less than 6.00. Then `Cc1cc(C)cc(Nc2nc(N[C@H](CC(C)C)C(N)=O)[nH]c(=O)c2C(N)=O)c1` [Example 55, (R)-2-(1-amino-4-methyl-1-oxopentan-2-ylamino)-4-(3,5-dimethylphenylamino)-6-oxo-1,6-dihydropyrimidine-5-carboxamide], with less than 6.00; and `NC(=O)c1c(Nc2cccc(-c3ccccn3)c2)nc(N[C@H](CC2CC2)C(N)=O)[nH]c1=O` [Example 95, (R)-2-(1-amino-3-cyclopropyl-1-oxopropan-2-ylamino)-6-oxo-4-(3-(pyridin-2-yl)phenylamino)-1,6-dihydropyrimidine-5-carboxamide], with 8.00 to 9.00; and `CC[C@@H](Nc1nc(Nc2cccc(OC(F)F)c2)c(C(N)=O)c(=O)[nH]1)C(N)=O` [Example 88, (R)-2-(1-amino-1-oxobutan-2-ylamino)-4-(3-(difluoromethoxy)phenylamino)-6-oxo-1,6-dihydropyrimidine-5-carboxamide], with 8.00 to 9.00. The result for `CC(C)C[C@@H](Nc1nc(Nc2cccc(-c3ccncc3)c2)c(C(N)=O)c(=O)[nH]1)C(N)=O` [Example 112, (R)-2-(1-amino-4-methyl-1-oxopentan-2-ylamino)-6-oxo-4-(3-(pyridin-4-yl)phenylamino)-1,6-dihydropyrimidine-5-carboxamide] reads 8.00 to 9.00; that for `COc1nc(NCC(N)=O)nc(Nc2cc(C)cc(C)c2)c1C(N)=O` [Example 50, 2-(2-amino-2-oxoethylamino)-4-(3,5-dimethylphenylamino)-6-methoxypyrimidine-5-carboxamide], 6.00 to 7.00; that for `Cc1cccc(Nc2nc(Nc3ccc(S(N)(=O)=O)cc3)nc(O)c2C(N)=O)c1` [Example 63, 4-(4-(3-methylphenylamino)-5-carboxamide-6-oxo-1,6-dihydropyrimidin-2-ylamino)benzenesulfonamide], 6.00 to 7.00.

Take `CC(C)C[C@@H](Nc1nc(Nc2ccc(-c3ccncc3)cc2)c(C(N)=O)c(=O)[nH]1)C(N)=O` [Example 111, (R)-2-(1-amino-4-methyl-1-oxopentan-2-ylamino)-6-oxo-4-(4-(pyridin-4-yl)phenylamino)-1,6-dihydropyrimidine-5-carboxamide]: the pIC50 is 8.00 to 9.00. Then `COc1nc(N[C@@H]2CCCC[C@@H]2N)nc(Nc2cccc(-n3nccn3)c2)c1C(N)=O` [Example 3, 2-((1R,2S)-2-aminocyclohexylamino)-4-(3-(2H-1,2,3-triazol-2-yl)phenylamino)-6-methoxypyrimidine-5-carboxamide], with 7.00 to 8.00. `COCCOc1ccc(Nc2nc(N[C@H](CC(C)C)C(N)=O)[nH]c(=O)c2C(N)=O)cc1` [Example 93, (R)-2-(1-amino-4-methyl-1-oxopentan-2-ylamino)-4-(4-(2-methoxyethoxy)phenylamino)-6-oxo-1,6-dihydropyrimidine-5-carboxamide]: the pIC50 was 8.00 to 9.00.

Turning to `COc1nc(N[C@@H](C(N)=O)C(C)C)nc(Nc2ccc3ncccc3c2)c1C(N)=O` [Example 15, (R)-2-(1-amino-3-methyl-1-oxobutan-2-ylamino)-4-methoxy-6-(quinolin-6-ylamino)pyrimidine-5-carboxamide], the pIC50 is 7.00 to 8.00. The result for `CC(C)C[C@@H](Nc1nc(Nc2cccc(-c3ncccn3)c2)c(C(N)=O)c(=O)[nH]1)C(N)=O` [Example 27, (R)-2-(1-amino-4-methyl-1-oxopentan-2-ylamino)-6-oxo-4-(3-(pyrimidin-2-yl)phenylamino)-1,6-dihydropyrimidine-5-carboxamide] reads 8.00 to 9.00. The result for `CC(C)C[C@@H](Nc1nc(Nc2cccc(-c3cccnc3)c2)c(C(N)=O)c(=O)[nH]1)C(N)=O` [Example 97, (R)-2-(1-amino-4-methyl-1-oxopentan-2-ylamino)-6-oxo-4-(3-(pyridin-3-yl)phenylamino)-1,6-dihydropyrimidine-5-carboxamide] reads 8.00 to 9.00. For the compound `CC(C)C[C@@H](Nc1nc(Nc2ccc(-n3cccn3)cc2)c(C(N)=O)c(=O)[nH]1)C(N)=O` [Example 18], the pIC50 was 8.00 to 9.00. The result for `Cc1cccc(Nc2nc(N[C@@H](C(N)=O)C(C)C)[nH]c(=O)c2C(N)=O)c1` [Example 10, (R)-2-(1-amino-3-methyl-1-oxobutan-2-ylamino)-6-oxo-4-(m-tolylamino)-1,6-dihydropyrimidine-5-carboxamide] reads 8.00 to 9.00; that for `NC(=O)c1c(O)nc(NC2CCCCC2N)nc1NC1CC1` (stereo not shown) [Example 48, 2-(2-aminocyclohexylamino)-4-(cyclopropylamino)-6-hydroxypyrimidine-5-carboxamide], less than 6.00.
